Laboratory results reported in patent publication US20140066373A1, “TREATING DIABETES WITH OXYTOCIN OR OXYTOCIN ANALOGS” (Albert Einstein College of Medicine of Yeshiva University, priority 2012, published 2014).
Where no end group is shown, it is not given here.

Assays:
[1] = tested on: HFD-induced prediabetic mouse model; test: Acute intra-third ventricle therapy in HFD-induced prediabetic (dietary obese) mice: GTT, fasting blood insulin, body weight; format: in vivo, C57BL/6 mice; conditions: for fasting blood insulin levels (hyperinsulinemia) / glucose intolerance (glucose tolerance test, GTT and AUC) / treatment effects compared with oxytocin at the same dose: 2-month HFD mice, intra-third ventricle; for fasting blood insulin levels (hyperinsulinemia) / glucose intolerance (glucose tolerance test, GTT and AUC): 2 μg per injection twice over overnight fasting, vs vehicle; for treatment effects compared with oxytocin at the same dose: 2 μg per injection twice, GTT and fasting insulin
Excerpt: (§1) Animals. C57BL/6 mice were purchased from Jackson Laboratory. All mice were housed in standard conditions. High-fat diet was purchased from Research Diets, Inc. All animal procedures were approved by the Institutional Animal Care and Use Committee. Mice were subjected to body weight measurement on a daily basis surrounding surgical procedures or drug treatments to monitor physical recovery or the effect of drug treatment on body weight.
(§2) Third ventricle cannulation and drug treatment. Third ventricle cannulation procedure was as previously described (39). An ultra-precise small animal stereotactic apparatus (Kopf Instruments) was used to perform implantation of a guide cannula into the third ventricle of anesthetized mice, at the coordinates of 1.8 mm posterior to the bregma and 5.0 mm below the skull surface. Mice were allowed 1-2 weeks for postsurgical recovery. For drug treatment. Oxytocin (Bachem Americas, Inc.), [Ser4, Ile8]-oxytocin (Bachem Americas, Inc.), [Asu1,6]-oxytocin (American Peptide Company, Inc.) or control vehicle were injected via pre-implanted guide cannula into the third ventricle of individually housed mice.
(§3) Blood tests. For glucose tolerance test (GTT), overnight-fasted mice received one-time intraperitoneal injection of glucose (2 g/kg body weight), and blood glucose levels were measured using OneTouch Ultra2 (LifeScan, Inc.). Fasting blood insulin levels were measured with Ultra Sensitive Mouse Insulin ELISA kits (Crystal Chem). Glucose-stimulated insulin secretion (GSIS) test was performed as previously described (19). Overnight-fasted mice received one-time intraperitoneal injection of glucose (3 g/kg body weight), and blood insulin levels were measured at 3 min. and 20 min. after the injection.
Acute oxytocin therapy reverses insulin resistance in dietary obese mice independently of body weight. […] To experimentally address whether oxytocin could have an anti-diabetic action, and independently of its anti-obesity effect, an acute oxytocin therapy paradigm was applied to dietary obese mice to avoid confounding body weight changes, so that the potential anti-diabetes effect of oxytocin could be dissected from its anti-obesity effect. Adult male C57BL/6 mice […] of high-fat diet (HFD) feeding since weaning to develop pre-diabetic glucose intolerance and hyperinsulinemia. Then these mice received third-ventricle implantation of guide cannula followed by postsurgical recovery. Oxytocin was administered via pre-implanted third-ventricle cannula at a dose of 2 μg per injection twice over an overnight fasting period, one at the starting point of fasting and the other at 30 min prior to glucose tolerance test (GTT). Mice of treatment control group received intra-third ventricle vehicle injections.
Acute [Ser4, Ile8]-oxytocin therapy improves insulin resistance in dietary obese mice independently of body weight. Having observed the anti-insulin resistance effect of oxytocin, it was next investigated whether oxytocin peptide analogs have similar or stronger treatment effect. The purpose of this experiment was two-fold. First, was to investigate whether the anti-insulin resistance action of oxytocin could be extended to oxytocin analogs. […] Existing oxytocin peptide analogs were screened. [Ser4, Ile8]-oxytocin came out of the screen as a good candidate. […] This stronger anti-insulin resistance effect of [Ser4, Ile8]-oxytocin is in line with structure-based theoretical prediction of drug effects. The substitution of glutamine at amino acid position 4 of oxytocin with serine has two direct effects on peptide function—it strengthens the α-helical structure in peptide (13), which leads to an overall structural stabilization, longer drug duration, and better protein binding property with signaling partners; it also increases the hydrophobicity of peptide, which leads to enhanced membrane permeability and improved tissue distribution. […]

[2] = tested on: STZ-induced diabetic mice; test: 7-day intra-third ventricle pretreatment in STZ-induced diabetic mice: GTT, fasting blood insulin, GSIS, body weight; format: in vivo, C57BL/6 mice; conditions: vs STZ control; for first-phase glucose-stimulated insulin secretion (GSIS): blood insulin 3 min after glucose 3 g/kg i.p.; for fasting blood insulin levels / glucose intolerance (glucose tolerance test, GTT and AUC): pretreatment twice per day for 7 days, intra-third ventricle, 1 μg per injection (1 mg [sic] for [Ser4, Ile8]-oxytocin), STZ 40 mg/kg i.p. Day 4 to Day 7
Excerpt: as §1, §2, §3
Next, it was investigated if oxytocin therapy may treat diabetes by counteracting its main pathological changes of pancreatic beta cell dysfunction and impaired insulin secretion. […] Experimentally, adult C57BL/6 mice on normal chow diet received intra-third ventricle implantation of cannula and postsurgical recovery. Oxytocin pretreatment was given at 1 μg per injection twice per day for 7 consecutive days via pre-implanted cannula, and non-treatment group received vehicle injections. From Day 4 to Day 7 during oxytocin treatment, mice simultaneously received intraperitoneal injections of STZ at 40 mg/kg body weight per day for 4 days to induce diabetes.
The same test strategy of pretreating mice with [Ser4, Ile8]-oxytocin was employed and then evaluating if it could attenuate the extent of STZ-induced beta cell dysfunction and diabetes. Adult chow-fed C57BL/6 mice first received intra-third ventricle injections of [Ser4, Ile8]-oxytocin at 1 mg per injection twice per day for 7 consecutive days. Non-treatment control mice received intra-third ventricle injections of vehicle instead of [Ser4, Ile8]-oxytocin. From Day 4 to Day 7 of [Ser4, Ile8]-oxytocin treatment, both treatment and control groups received intraperitoneal injections of STZ at 40 mg/kg body weight per injection per day for 4 days. The same panel of examinations were performed including glucose tolerance test, fasting blood insulin levels and glucose-stimulated insulin secretion in these mice.
Finally [Asu1,6]-oxytocin was tested for potential […] protection and anti-diabetic effects using an STZ-induced diabetic mouse model. [Asu1,6]-oxytocin pretreatment was given to adult chow-fed C57BL/6 mice via intra-third ventricle injections at 1 μg per injection b.i.d. for 7 consecutive days. Vehicle injections were given in parallel to non-treatment control group. From Day 4 to Day 7 of [Asu1,6]-oxytocin treatment, mice were subjected to STZ induction of diabetes at 40 mg/kg body weight per intraperitoneal injection per day for 4 days. Following [Asu1,6]-oxytocin and STZ treatments, mice were evaluated for glucose tolerance test, fasting blood insulin levels, and glucose-stimulated insulin secretion.

[3] = tested on: uterine contractile response; conditions: of natural oxytocin, literature report (36); cited from earlier work
[4] = tested on: type-1 diabetic patients; conditions: type-1 diabetic patients (28); cited from earlier work
[5] = tested on: normal rats; conditions: central or peripheral administration; normal rats (5); cited from earlier work
[6] = tested on: obesity; conditions: cited from earlier work
[7] = tested on: normal men; conditions: normal men (29); cited from earlier work

Compound | fasting blood insulin levels (hyperinsulinemia) [1] | glucose intolerance (glucose tolerance test, GTT and AUC) [1] | treatment effects compared with oxytocin at the same dose [1] | first-phase glucose-stimulated insulin secretion (GSIS) ([2]; 7-day pretreatment, STZ mice) | fasting blood insulin levels [2] | glucose intolerance (glucose tolerance test, GTT and AUC) [2] | intrinsic activity relative to natural oxytocin [3] | pancreatic insulin secretion [4] | insulin resistance ([1]; obesity-induced type-2 prediabetic mice, acute treatment) | pancreatic insulin secretion [5] | obesity ([6]; chronic central or peripheral oxytocin treatment (25; 37)) | food intake ([6]; oxytocin treatment (37)) | second-phase glucose-stimulated insulin secretion (GSIS) ([2]; blood insulin 20 min after glucose 3 g/kg i.p., 7-day pretreatment, STZ mice) | pancreatic insulin secretion [7]
[Asu1,6]-oxytocin | lowered fasting blood insulin levels | improved glucose intolerance | slightly weaker than oxytocin | appreciably improved | appreciably improved | appreciably improved | ~70% |  |  |  |  |  |  | 
[Ser4, Ile8]-oxytocin (CYISNCPIG; ends and bridges not checked; cysteine pairing not given here; UniProt P01178 20-28, looked up, variant Q4S L8I) [oxytocin analog: glutamine at position 4 substituted with serine, leucine at position 8 with isoleucine; Bachem Americas, Inc] | significantly corrected | significantly corrected glucose intolerance | higher efficacy than oxytocin | significantly higher levels of first-phase GSIS than non-treatment group | ameliorated circulating insulin insufficiency | significantly prevented STZ-induced glucose intolerance |  |  |  |  |  |  |  | 
CC[C@H](C)[C@@H]1NC(=O)[C@H](Cc2ccc(O)cc2)NC(=O)[C@@H](N)CSSC[C@@H](C(=O)N2CCC[C@H]2C(=O)N[C@@H](CC(C)C)C(=O)NCC(N)=O)NC(=O)[C@H](CC(N)=O)NC(=O)[C@H](CCC(N)=O)NC1=O [oxytocin, Cys-Tyr-Ile-Gln-Asn-Cys-Pro-Leu-Gly-NH2] | significantly improved | significantly improved |  | potentiated | protected fasting blood insulin levels | significantly improved glucose intolerance |  | can stimulate pancreatic insulin secretion | can acutely reverse insulin resistance | can stimulate pancreatic insulin secretion | can decrease obesity | decreases rather than increases food intake | potentiated | can stimulate pancreatic insulin secretion
